Each structure is given as a SMILES string. Numbered stars: 1 amine (or outer) side, 2 acyl side, 3 side chain; on linkers, the order of the positions; unused ones are H or OH. Square brackets hold non-standard residues; d marks the D form. Side chains are listed from the residue outwards. Peptide text beside a SMILES is read from it. * marks the point of attachment. C18 diacid = O=C(O)CCCCCCCCCCCCCCCCC(=O)*; αMePhe(2-F) = C[C@](N)(Cc1ccccc1F)C(=O)O; γGlu = O=C(O)[C@H](CCC(=O)[*:2])N[*:1]; αMeL = CC(C)C[C@](C)(N)C(=O)O; Dab = NCC[C@H](N)C(=O)O; Dap = NC[C@H](N)C(=O)O; AEEA = NCCOCCOCC(=O)O; Aib = CC(C)(N)C(=O)O

One test concerns the target human GLP-1R (Homo sapiens, UniProt P43220). Nature of the test: [125I]-GLP-1 binding (SPA), human GLP-1 receptor. On the set-up: expressed in transfected cells; crude membranes. As to conditions: read-out: hGLP1R Ki, (nM) (SEM, n). Summed up: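 Assay buffer: HEPES 25 mM, pH 7.4, CaCl2 2.5 mM, MgCl2 1 mM, with EDTA-free protease inhibitors. Receptor came from crude cell membranes prepared by homogenization and centrifugation at 4° C. IC50s came from four-parameter fits (maximum, minimum, IC50, Hill slope) and were expressed as Ki geometric means with SEM.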

For a further test, the target named is T1, human Gcg receptor (Homo sapiens, UniProt P47871).
T1 construct: expressed in transfected cells; crude membranes
Put plainly: [125I]-Glucagon binding (SPA), human Gcg receptor. As to conditions: read-out: hGLcgR Ki, nM (SEM, n). The essentials:
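Crude membranes from cells expressing the receptor, prepared by hypotonic lysis in 50 mM Tris HCl pH 7.5 with protease inhibitors, homogenization and differential centrifugation, were used in a WGA-bead SPA. Binding buffer: 25 mM HEPES pH 7.4, 2.5 mM CaCl2, 1 mM MgCl2, bacitracin, Tween-20.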

Test [1] concerns the target human GLP-1 receptor (GLP-1R) (Homo sapiens, UniProt P43220). Put plainly: cAMP pharmacological functional assay in presence of casein, hGLP-1R. Format: cell-based. As to conditions: HEK293 cells expressing hGLP-1R, 0.1% Casein, geometric mean; read-out: hGLP1R cAMP Rel EC50 nM (SEM, n).
For test [2], the target named is T2, gastric inhibitory peptide receptor (GIPR) (Homo sapiens, UniProt P48546).
T2 sequence (P48546 22-466): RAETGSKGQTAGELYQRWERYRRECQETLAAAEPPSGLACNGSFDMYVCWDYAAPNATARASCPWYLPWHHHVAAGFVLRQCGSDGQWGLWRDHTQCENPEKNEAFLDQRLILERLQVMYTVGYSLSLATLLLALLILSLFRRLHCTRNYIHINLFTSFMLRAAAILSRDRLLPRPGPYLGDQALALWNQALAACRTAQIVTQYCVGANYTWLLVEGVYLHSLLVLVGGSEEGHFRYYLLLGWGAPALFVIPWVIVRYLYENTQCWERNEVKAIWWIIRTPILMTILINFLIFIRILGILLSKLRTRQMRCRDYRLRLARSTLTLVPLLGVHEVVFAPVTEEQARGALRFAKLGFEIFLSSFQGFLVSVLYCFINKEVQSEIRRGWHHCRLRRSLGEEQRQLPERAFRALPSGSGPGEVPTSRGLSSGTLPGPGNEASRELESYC
Put plainly: cAMP pharmacological functional assay in presence of casein, hGIPR. Format: cell-based. As to conditions: HEK293 cells expressing hGIPR, 0.1% Casein, geometric mean; read-out: hGIPR cAMP Rel EC50 nM (SEM, n).

The next test has as its target T3, human GIP receptor (Homo sapiens, UniProt P48546).
T3 construct: expressed in transfected cells; crude membranes
T3 sequence (P48546 22-466): T2 sequence (P48546 22-466)
Nature of the test: [125I]-GIP binding (SPA), human GIP receptor. As to conditions: read-out: hGIPR Ki, nM (SEM, n).

T1 sequence (P47871 26-477): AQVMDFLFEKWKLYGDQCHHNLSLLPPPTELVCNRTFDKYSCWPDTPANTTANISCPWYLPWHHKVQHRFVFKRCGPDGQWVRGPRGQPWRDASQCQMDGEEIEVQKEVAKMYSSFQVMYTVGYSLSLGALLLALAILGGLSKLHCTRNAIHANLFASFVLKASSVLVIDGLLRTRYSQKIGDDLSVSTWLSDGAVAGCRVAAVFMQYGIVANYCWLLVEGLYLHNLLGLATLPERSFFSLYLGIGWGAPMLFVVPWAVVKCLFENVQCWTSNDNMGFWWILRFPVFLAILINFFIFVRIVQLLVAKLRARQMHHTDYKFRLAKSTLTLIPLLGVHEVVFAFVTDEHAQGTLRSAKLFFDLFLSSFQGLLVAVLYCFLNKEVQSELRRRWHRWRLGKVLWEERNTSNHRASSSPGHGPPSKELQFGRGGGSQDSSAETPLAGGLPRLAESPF
Chain of human GLP-1R (P43220 24-463): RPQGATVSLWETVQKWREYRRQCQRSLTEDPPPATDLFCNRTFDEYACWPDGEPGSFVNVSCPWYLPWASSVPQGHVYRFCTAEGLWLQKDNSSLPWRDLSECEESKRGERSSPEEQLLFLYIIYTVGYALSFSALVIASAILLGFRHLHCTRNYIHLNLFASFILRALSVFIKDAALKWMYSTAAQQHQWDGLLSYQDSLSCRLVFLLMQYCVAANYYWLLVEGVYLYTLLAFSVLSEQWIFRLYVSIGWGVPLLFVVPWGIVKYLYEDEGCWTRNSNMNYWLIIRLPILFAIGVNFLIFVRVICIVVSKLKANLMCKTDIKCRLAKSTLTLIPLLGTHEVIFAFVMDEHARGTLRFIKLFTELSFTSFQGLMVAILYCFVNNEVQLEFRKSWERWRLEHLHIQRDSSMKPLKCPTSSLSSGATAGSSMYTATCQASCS
Chain of human GLP-1 receptor (GLP-1R) (P43220 24-463): as above

In general, Ki refers to the dissociation constant of the complex between target and ligand, obtained from inhibition or displacement. What is called EC50 is the concentration needed to bring the measured effect to its halfway point. As for `CC[C@H](C)[C@H](NC(=O)[C@H](CC(C)C)NC(=O)[C@H](Cc1ccc(O)cc1)NC(=O)[C@@H](CCC(=O)O)NC(=O)[C@@H](NC(=O)[C@H](Cc1ccccc1)NC(=O)[C@H](CCC(=O)O)NC(=O)C(C)(C)NC(=O)[C@H](CCC(N)=O)NC(=O)[C@H](C)NC(=O)[C@H](CCCCNC(=O)COCCOCCNC(=O)COCCOCCNC(=O)CC[C@H](NC(=O)CCCCCCCCCCCCCCCCC(=O)O)C(=O)O)NC(=O)[C@H](CCN)NC(=O)[C@H](CC(=O)O)NC(=O)[C@H](CC(C)C)NC(=O)[C@](C)(CC(C)C)NC(=O)[C@@H](NC(=O)[C@H](CO)NC(=O)[C@H](Cc1ccc(O)cc1)NC(=O)[C@H](CC(=O)O)NC(=O)[C@H](CO)NC(=O)[C@@H](NC(=O)[C@](C)(Cc1ccccc1F)NC(=O)[C@@H](NC(=O)CNC(=O)[C@H](CCC(=O)O)NC(=O)C(C)(C)NC(=O)[C@@H](N)Cc1ccc(O)cc1)[C@@H](C)O)[C@@H](C)O)[C@@H](C)CC)[C@@H](C)CC)C(=O)N[C@@H](CCC(=O)O)C(=O)NCC(=O)NCC(=O)N1CCC[C@H]1C(=O)N[C@@H](CO)C(=O)N[C@@H](CO)C(=O)NCC(=O)N[C@@H](C)C(=O)N1CCC[C@H]1C(=O)N1CCC[C@H]1C(=O)N1CCC[C@H]1C(=O)N[C@@H](CO)C(N)=O` [Example 209] (H-Y[Aib]EGT[αMePhe(2-F)]TSDYSI[αMeL]LD[Dab]K([AEEA-AEEA-γGlu-C18 diacid])AQ[Aib]EFI[dE]YLIEGGPSSGAPPPS-NH2), the Ki at human GLP-1R was 1.43 nM; at human Gcg receptor it was above 1060 nM; on human GIP receptor it was 0.0664 nM. Also, the figures for the EC50 in test [1] and in test [2] were 0.0374 nM and 0.0308 nM, respectively.
The matching figures for `CC[C@H](C)[C@H](NC(=O)[C@H](CC(C)C)NC(=O)[C@H](Cc1ccc(O)cc1)NC(=O)[C@@H](CCC(=O)O)NC(=O)[C@@H](NC(=O)[C@H](Cc1ccccc1)NC(=O)[C@H](CCC(=O)O)NC(=O)C(C)(C)NC(=O)[C@H](CCC(N)=O)NC(=O)[C@H](C)NC(=O)[C@H](CCCCNC(=O)COCCOCCNC(=O)COCCOCCNC(=O)CC[C@H](NC(=O)CCCCCCCCCCCCCCCCC(=O)O)C(=O)O)NC(=O)[C@H](CN)NC(=O)[C@H](CC(=O)O)NC(=O)[C@H](CC(C)C)NC(=O)[C@](C)(CC(C)C)NC(=O)[C@@H](NC(=O)[C@H](CO)NC(=O)[C@H](Cc1ccc(O)cc1)NC(=O)[C@H](CC(=O)O)NC(=O)[C@H](CO)NC(=O)[C@@H](NC(=O)[C@](C)(Cc1ccccc1F)NC(=O)[C@@H](NC(=O)CNC(=O)[C@H](CCC(=O)O)NC(=O)C(C)(C)NC(=O)[C@@H](N)Cc1ccc(O)cc1)[C@@H](C)O)[C@@H](C)O)[C@@H](C)CC)[C@@H](C)CC)C(=O)N[C@@H](CCC(=O)O)C(=O)NCC(=O)NCC(=O)N1CCC[C@H]1C(=O)N[C@@H](CO)C(=O)N[C@@H](CO)C(=O)NCC(=O)N[C@@H](C)C(=O)N1CCC[C@H]1C(=O)N1CCC[C@H]1C(=O)N1CCC[C@H]1C(=O)N[C@@H](CO)C(N)=O` [Example 210] (H-Y[Aib]EGT[αMePhe(2-F)]TSDYSI[αMeL]LD[Dap]K([AEEA-AEEA-γGlu-C18 diacid])AQ[Aib]EFI[dE]YLIEGGPSSGAPPPS-NH2): 1.58 nM, above 1010 nM, 0.0399 nM, 0.0432 nM and 0.0383 nM.
